Measured values: patent US20230141988A1, “PHARMACEUTICAL COMPOSITION FOR USE IN THE TREATMENT OF NEUROLOGICAL DISEASES” (Aclipse One Inc., priority 2020, published 2023)
Values joined by “and” are separate entries in the source; they are usually repeats but may differ in a detail not shown here. Equal entries are not always repeated. Where two headings read alike, the source gives them in different places.

Tests used:
in vivo [1] = conditions: male, C57BL/6J, mouse
Experimental: (§1) 9 male C57BL/6J mice following administration of a single subcutaneous dose of 4.40 mg/kg. The vehicle for the subcutaneous formulation contained “0.1% sodium metabisulfite solution”.
(§2) Male C57BL/6J mice were purchased from Si Bei Fu Laboratory Animal Technology Co. Ltd (Beijing, China). The animals were about 8 weeks old with body weights of 20-30 g on the dosing date. The animals were housed in a 12-hour light/12-hour dark cycle environment and had free access to food and water. All animals were fasted overnight and fed after 4 hours collection.
(§3) For group 1, plasma samples were collected from dorsal metatarsal vein at each time point after subcutaneous administrations.
(§4) For plasma samples, about 30 μL or 300 μL of blood samples were collected from each animal via dorsal metatarsal vein or heart. These blood samples were placed into the tubes containing K2EDTA. And centrifugation at 3000 g for 10 minutes in a 4° C. centrifuge. The completion time from collection was less than 30 min. The stabilizing agent of ascorbic acid at 200 mg/mL was added in a proportion of 10% in plasma. The plasma samples were stored in a freezer at −75±15° C. prior to analysis. The completion time from collection was less than 60 min.
(§5) For brain and CSF samples, The animals were fully exsanguinated with a rising concentration of CO2 gas prior to CSF and brain collection.
(§6) For CSF collection, incision was made by scissors on the neck of the rats to expose the foramen magnum. A syringe fitted with a venoclysis needle was used to sample the CSF, the tip of the needle was inserted into the membrane of foramen magnum about 1-2 mm, and a negative pressure was applied by pulling a stopcock a small length of the syringe to extract CSF fluids into a tube. The stopcock was further actuated to until a sufficient amount of CSF was collected. There should be no blood in the CSF fluid. A stabilizing agent of ascorbic acid at 200 mg/mL was added in a proportion of 10% in CSF.
(§7) For brain collection. Brain samples were collected at an adopted time point, and washed 3 times with cold saline, then dried with clean gauze and put into the weighed tube, quick frozen in an ice box and kept at −75±15° C. All brain samples were weighted and homogenized with phosphate buffered saline (PBS) by brain weight (g) to PBS volume (mL) ratio 1:3 before analysis. The stabilizing agent of ascorbic acid at 200 mg/mL was added in a proportion of 10% in grain homogenate. The actual concentration was the detected value multiplied by the dilution factor. Brain samples were collected at designed time point, quickly homogenized and kept at −75±15° C.
(§8) Calibration standard working solutions were prepared at concentrations of 2, 5, 10, 20, 50, 100, 500, 1000, 5000 and 10000 ng/mL by serial dilution of the standard stock solution in 50% acetonitrile in water. Quality control working solutions at concentrations of 5, 10, 500 and 8000 ng/mL were prepared by serial dilution of the standard stock solution in 50% acetonitrile in water. These QC samples were prepared on the day of analysis in the same way as calibration standards.
(§9) For plasma and brain samples, 3 μL of each calibration standard working solution (2, 5, 10, 20, 50, 100, 500, 1000, 5000 and 10000 ng/mL) was added to 30 μL of the blank C57BL/6J mouse plasma or brain homogenate (with 10% 200 mg/mL ascorbic acid) to achieve calibration standards of 0.2-1000 ng/mL (0.2, 0.5, 1, 2, 5, 10, 50, 100, 500, 1000 ng/mL) in a total volume of 33 μL. Quality Control (QC) samples at 0.5 ng/mL (low-1), 1 ng/mL (low-2), 50 ng/mL (mid), 800 ng/mL (high) for plasma were prepared independently for those used for the calibration curves. These QC samples were prepared on the day of analysis in the same way as calibration standards.

[2] = mouse, in vivo
Experimental: as §1, §2, §3, §4, §5, §6, §7, §8, §9

[3] = Pharmacokinetic and brain penetration study, single subcutaneous dose, male C57BL/6J mouse (plasma, CSF, brain); conditions: in vivo, sc, 0.0367 mg/kg
Experimental: as §1, §2, §3, §4, §5, §6, §7, §8, §9

[4] = male, SD, rat, in vivo, iv, 0.88 mg/kg, 1 h
Experimental: (§10) The vehicle for the IV, subcutaneous, PO and IN formulation contained “0.1% sodium metabisulfite solution”.
(§11) Male SD rats were purchased from Si Bei Fu Laboratory Animal Technology Co. Ltd (Beijing, China). The animals were about 8 weeks old with body weights of 200-300 g on the dosing date. The animals were housed in a 12-hour light/12-hour dark cycle environment and had free access to food and water. All animals were fasted overnight and fed after 4 hours collection.
(§12) Plasma samples were collected from jugular vein at each time point after IV, subcutaneous, PO and IN administrations.
(§13) About 200 μL of blood samples were collected from each animal via jugular vein. These blood samples were placed into the tubes containing K2EDTA. And centrifugation at 3000 g for 10 minutes in a 4° C. centrifuge. The completion time from collection was less than 30 min. The stabilizing agent of ascorbic acid at 200 mg/mL was added in a proportion of 10% in plasma. The plasma samples were stored in a freezer at −75±15° C. prior to analysis. The completion time from collection was less than 60 min.
(§14) Calibration standard working solutions were prepared at concentrations of 2, 5, 10, 20, 50, 100, 500, 1000, 5000 and 10000 ng/mL by serial dilution of the standard stock solution in 50% acetonitrile in water. Quality control working solutions at concentrations of 5, 10, 20, 500 and 8000 ng/mL were prepared by serial dilution of the standard stock solution in 50% acetonitrile in water. These QC samples were prepared on the day of analysis in the same way as calibration standards.
(§15) For plasma samples, 2 μL of each calibration standard working solution (2, 5, 10, 20, 50, 100, 500, 1000, 5000 and 10000 ng/mL) was added to 20 μL of the blank SD rat plasma (with 10% 200 mg/mL ascorbic acid) to achieve calibration standards of 0.2-1000 ng/mL (0.2, 0.5, 1, 2, 5, 10, 50, 100, 500, 1000 ng/mL) in a total volume of 22 μL. Quality Control (QC) samples at 0.5 ng/mL (low-1), 1 ng/mL (low-2) and 2 ng/mL (low-3), 50 ng/mL (mid), 800 ng/mL (high) for plasma were prepared independently for those used for the calibration curves. These QC samples were prepared on the day of analysis in the same way as calibration standards. The total volumes of 22 μL of standards, 22 μL of QC samples and 22 μL of unknown samples (20 μL of unknown plasma (with 10% 200 mg/mL ascorbic acid) with 2 μL 50% acetonitrile) were added to 200 μL of acetonitrile containing IS to precipitate proteins. Then the samples were vortexed for 30 sec. After centrifugation at 4° C., 4700 rpm for 30 min, and supernatant was diluted 2 times with water, 10 μL of the diluted supernatant was injected into the LC-MS/MS system for quantitative analysis.
All the samples were processed on ice.
(§16) The LC-MS/MS system consisted of two Shimadzu LC-30AD pumps, a DGU-20A5R degasser, a Rack changer II and LCMS-8060 LC/MS/MS instrument mass spectrometer.
(§17) OD-3R Particle size 3 μm 4.6 mm×150 mm column at room temperature. The mobile phase was composed of A: Water (5 mM Ammonium Acetate); B: Ethanol (5 mM Ammonium Acetate). The flow rate was 0.5 mL/min. The injection volume was 10 μL.
(§18) A multiple reaction monitoring (MRM) method was selected for quantitative analysis. […] The instrument parameters were set as follows: ion spray voltage: 8060; heating gas flow: 10 L/min; interface temperature: 250° C.; DL temperature: 220° C.; heat block temperature: 400° C.; drying gas flow: 10 L/min.
(§19) Data acquisition was performed by Lab Solutions version 5.89 Software (Shimadzu). All concentration data was reported with 3 significant figures. Data statistics were performed using Excel 2010 software.
(§20) The linear trapezoidal algorithm was used for AUC calculation.

in vivo [5] = conditions: male, SD, rat, iv, 0.88 mg/kg
Experimental: as §10, §11, §12, §13, §14, §15
All the samples were processed on ice.
as §16, §17, §18, §19, §20

[6] = Solubility in aqueous media / aqueous buffer solutions; format: physicochemical; conditions: hydrochloride salt, aqueous buffer solutions

For `CN1CCc2cccc3c2[C@H]1Cc1ccc(O)c(O)c1-3`, the concentration at […] (in vivo [1]; 0.0367 mg/kg, plasma concentration) was 10.1 ng/mL, the concentration at 0.5 h (in vivo [1]; brain concentration, Conc. (ng/g)) was 38 ng/g and the concentration at 0.5 h (in vivo [1]; brain concentration, Conc. (ng/mL)) was 7.6 ng/mL. For the same compound, the concentration at 0.5 h (in vivo [1]; brain concentration, Mean) was 39.6 ng/g, the concentration at […] (in vivo [1]; brain concentration, Mean) was 48.4 ng/g and the concentration at 0.5 h (in vivo [1]; plasma concentration) was 5.06 ng/mL. The concentration at 1 h (in vivo [1]; plasma concentration) was 1.82 ng/mL, the concentration at […] (in vivo [1]; plasma concentration) was 7.46 ng/mL and 8.5 ng/mL and the concentration at 0.5 h (in vivo [1]; plasma concentration, Mean) was 5.15 ng/mL. For the same compound, the concentration at 1 h (in vivo [1]; plasma concentration, Mean) was 1.65 ng/mL, the concentration at […] (in vivo [1]; plasma concentration, Mean) was 6.5 ng/mL and 8.16 ng/mL and the AUC(0-t) (in vivo [1]; sc, 0.0367 mg/kg, AUClast) was 5.1 ng·h/mL. The AUC(0-inf) (in vivo [1]; sc, 0.0367 mg/kg, AUC∞) was 5.99 ng·h/mL, the Cmax (in vivo [1]; sc, 0.0367 mg/kg, Cmax) was 8.56 ng/mL and the MRT inf (in vivo [1]; sc, 0.0367 mg/kg, MRTInf) was 32.5 min. For the same compound, the Tmax ([2]; male, C57BL/6J, sc, 0.0367 mg/kg) was 11.7 min, the plasma concentration [2] was “BLOQ” and the Cmax [3] was 7.78 ng/mL. The plasma concentration [4] was 0.207 ng/mL, the concentration at 2 min (in vivo [5]; mean plasma concentration) was 3.75 ng/mL and the concentration at 0.5 h (in vivo [5]; mean plasma concentration) was 0.559 ng/mL. For the same compound, the concentration at 1 h (in vivo [5]; mean plasma concentration) was 0.232 ng/mL, the concentration at 2 min (in vivo [5]; plasma concentration) was 3.85 ng/mL and the concentration at 0.5 h (in vivo [5]; plasma concentration) was 0.582 ng/mL. For the same compound, the concentration at 1 h (in vivo [5]; plasma concentration) was 0.257 ng/mL.

With `CN1CCc2cccc3c2[C@@H]1Cc1ccc(O)c(O)c1-3.Cl` the solubility [6] was “low solubility”.
